Measured values as given in patent publication US20020049151A1, “Therapeutic approaches to diseases by suppression of the NURR subfamily of nuclear transcription factors” (priority 2000, published 2002).
Entries after “also recorded” stand apart in the source; their conditions may differ.

What was measured:
[1] = system: NURR1 mRNA; experiment: Northern blot of NURR1 mRNA in primary synoviocytes; assay type: cell-based, human; conditions: for NURR1 mRNA levels after stimulation: 25 μM forskolin, 20 ng/ml PMA, 10 ng/ml TNFα, IL-1β, IL-6, 1 μM PGE2, CRH
Protocol: Regulation of gene expression by the protein kinase A and C pathways represent important signaling events in RA synoviocytes (Ben-Av et al., 1995; Crofford et al., 1994; Firestein and Manning, 1999). […] To investigate the involvement of the protein kinase C signaling pathways in NURR regulation, synoviocytes were treated with phorbal myristic acetate (PMA). […] In contrast, dexamethasone had little effect on forskolin- or PMA-induced NUR77 levels.
In FIG. 4 total RNA was extracted and northern blot analysis was performed. Filters were hybridized with a cDNA for NURR1 or NUR77 and also with GAPDH to control for loading and transfer. Synovial explants were left untreated [C] or incubated with 10^−8M CRH for the indicated times. (FIG. 4A) Confluent monolayers of primary synoviocytes were left untreated [C] or pretreated with 10^−8M dexamethasone (DEX) for 2 h prior to the addition of 25μM forskolin (FOR) or 20 ng/ml of phorbal myristic acetate (PMA). (FIG. 4B)
Therefore the pathological importance of the NURR transcription factors in inflammatory joint disease was further examined by determining the ability of pro-inflammatory agonists to regulate NURR transcript levels in primary synoviocytes and synovium explant tissue (FIG. 6).
For FIG. 6 each membrane was reprobed with a GAPDH cDNA to control for loading and transfer. NURR1 mRNA levels were measured by northern analysis using total RNA extracted from synoviocytes left untreated [C] or cultured for the time indicated with (A) TNFα (10 ng/ml) in the presence or absence of pre-treatment with 10^−8M dexamethasone (DEX). (B) IL-1β(10 ng/ml) in the presence or absence of pretreatment with 2 μM indomethacin (INDO) or 10^−8M DEX. (C) or synovial explants cultured with IL-6 (10 ng/ml). (D) 1 μM PGE2. (E) 25 μM forskolin (FOR) or […] for 1h in the absence or presence of 5 µg/ml cycloheximide (CHX).
Northern analysis of primary RA synoviocytes were untreated (lane 1) or treated for 1 hour with TNFα (lane 2), IL-1β (lane 3), and PGE2 (lane 4). TNFα and IL-1β were used at a concentration of 10 ng/mL and PGE2 was at a concentration of 10^-6 M.
Total RNA was isolated from cultured primary synoviocytes or synovial explants. RNA was quantitated by UV absorption and 10 μg of total RNA were electrophoresed on a standard northern gel and transferred to nylon membrane (BioRad, Richmond, Calif.). NURR1 and NUR77 cDNA probes (Murphy and Conneely, 1997), spanning the amino terminal region to avoid cross-hybridization, were radiolabeled to a high specific activity using [α-^32P] dCTP and a random primer labeling system (Promega, Madison, Wis.). Blots were exposed to film at −80° C. using intensifying screens and autoradiographic intensity was quantitated using an imaging densitometer.

[2] = system: CRH NBRE; experiment: EMSA of synoviocyte nuclear extracts with CRH NBRE; assay type: cell-based, human; conditions: synoviocytes stimulated 1 h; 25 μM forskolin, 10 ng/ml TNFα, IL-1β or PGE2
Protocol: To analyze the effects of cytokines on the ability of NURR1 to bind DNA, EMSA was performed to examine the binding properties of NURR1 to the consensus sequence (NBRE) in the human CRH promoter. […] Binding of the larger protein complex, and to a lesser extent the smaller complex, was inhibited by 50× molar excess of unlabeled homologous oligonucleotide.
Nuclear extracts from untreated, 25 μM forskolin (FOR) or lOng/ml TNFα treated synoviocytes (1 h) were compared for increased binding to the α^32 P-labeled CRH NBRE. DNA-protein interactions were assayed in the presence of 50× molar excess of homologous oligonucleotide or NURR1 specific antiserum (NURR1 Ab).
Nuclear protein extracts were prepared as previously described (Murphy and Conneely, 1997). For the EMSAs, 1 μg of nuclear extract was incubated for 20 mins in the presence of 20 mM Hepes (pH 7.9), 5 mM MgCl2, 20% glycerol, 100 mM KCL, 0.2 mM EDTA, 8% Ficoll, […], 500 ng/μl poly (deoxyinosinicdeoxycytidylic) acid, 50 mM dithiothreitol (DTT) and [α-^32P]-dCTP labeled doublestranded oligonucleotide. For supershifts experiments, antibodies to NURR1 (Santa Cruz Biotechnology, Santa Cruz, Calif.) were added following the initial 20-minute incubation, then incubated for an additional 20 minutes. The samples were electrophoresed through a 5.5% non-denaturing polyacrylamide gel in 0.5× TrisBorate-EDTA (TBE) buffer. For competition studies, the reaction was performed as described with the indicated concentrations of unlabeled probe. The oligonucleotide CRH NBRE 5′-[…]-3′ (SEQ ID NO:152) was used in the mobility shift assay.

Molecule | NURR1 mRNA levels after stimulation [1] | effect in stimulating NURR1 mRNA compared with the other agonists ([1]; PGE2 1 μM, 10^-6 M) | binding of nuclear protein complexes with the CRH NBRE [2]
CCCCC[C@H](O)/C=C/[C@H]1[C@H](O)CC(=O)[C@@H]1C/C=C\CCCC(=O)O [PGE2, reference compound] | rapid and marked increase | most potent and sustained effect | significant increased binding
IL-1β: pro-inflammatory cytokine | rapid and marked increase |  | significant increased binding
IL-6: pro-inflammatory cytokine | did not significantly induce |  | 
TNFα | rapid and marked increase; also recorded: increased |  | significant increased binding
